Experiments:
Test in all cases: Test C greenhouse herbicide test, pre- and postemergence
Format in all cases: in vivo
[1] = tested on: lambsquarters (Chenopodium album)
Outline: (§1)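 Greenhouse pots; pre-em on seeded loam:sand blend, post-em on 2–18 cm plants (1–4 leaf) in sphagnum peat/vermiculite medium. Formulation: non-phytotoxic solvent + surfactant. Read-out: visual % control (0–100) vs controls at 13–15 d.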

soybean (Glycine max) = tested on: soybean (Glycine max)
Outline: as §1

[2] = tested on: wheat (winter wheat, Triticum aestivum)
Outline: as §1

[3] = tested on: barnyardgrass (Echinochloa crus-galli)
Outline: as §1

[4] = tested on: blackgrass (Alopecurus myosuroides)
Outline: as §1

[5] = tested on: galium (catchweed bedstraw, Galium aparine)
Outline: as §1

[6] = tested on: velvetleaf (Abutilon theophrasti)
Outline: as §1

[7] = tested on: waterhemp (common waterhemp, Amaranthus rudis)
Outline: as §1

[8] = tested on: foxtail, giant (giant foxtail, Setaria faberii)
Outline: as §1

corn (Zea mays) = tested on: corn (Zea mays)
Outline: as §1

[9] = tested on: pigweed (Amaranthus retroflexus)
Outline: as §1

[10] = tested on: nutsedge, yellow (yellow nutsedge, Cyperus esculentus)
Outline: as §1

[11] = tested on: ryegrass, Italian (Italian ryegrass, Lolium multiflorum)
Outline: as §1

[12] = tested on: morningglory (Ipomoea coccinea)
Outline: as §1

[13] = tested on: johnsongrass (Sorghum halepense)
Outline: as §1

[14] = tested on: ragweed (common ragweed, Ambrosia elatior)
Outline: as §1

[15] = Postemergence, 31 g ai/ha, scale 0 to 100 (0 no effect, 100 complete control)
[16] = Postemergence, 62 g ai/ha, 0 to 100 scale (0 no effect, 100 complete control)
[17] = Postemergence, 250 g ai/ha, scale 0 to 100, 0 no effect, 100 complete control, 13 to 15 d
[18] = Preemergence, 31 g ai/ha, scale 0 to 100, 0 is no effect, 100 is complete control
[19] = Preemergence, 62 g ai/ha, scale 0 to 100, 0 is no effect, 100 is complete control
[20] = Preemergence, 125 g ai/ha, scale 0 to 100, 0 is no effect, 100 is complete control
[21] = Preemergence, 250 g ai/ha, scale 0 to 100 (0 no effect, 100 complete control)
[22] = postemergence, 125 g ai/ha, scale 0 to 100, 0 no effect, 100 complete control

Compound: CCC(=O)Oc1c(C)nn(C)c(=O)c1-c1ccc(Br)c2ccccc12 [Compound 133]
- Plant response rating, Lambsquarters [1, 15]: 95
- Lambsquarters plant response rating [1, 16]: 98
- Plant response rating, Lambsquarters [1, 17]: 100
- Plant response rating, Lambsquarters [1, 18]: 90
- Plant response rating, Lambsquarters [1, 19]: 90
- Plant response rating, Lambsquarters [1, 20]: 95
- Lambsquarters plant response rating [1, 21]: 95
- Lambsquarters plant response rating [1, 22]: 100
- Plant response rating, Soybean (soybean (Glycine max); [15]): 55
- Soybean plant response rating (soybean (Glycine max); [16]): 40
- Plant response rating, Soybean (soybean (Glycine max); [17]): 40
- Plant response rating, Soybean (soybean (Glycine max); [18]): 5
- Plant response rating, Soybean (soybean (Glycine max); [19]): 55
- Plant response rating, Soybean (soybean (Glycine max); [20]): 65
- Soybean plant response rating (soybean (Glycine max); [21]): 80
- Soybean plant response rating (soybean (Glycine max); [22]): 75
- Plant response rating, Wheat [2, 15]: 25
- Wheat plant response rating [2, 16]: 35
- Plant response rating, Wheat [2, 17]: 80
- Plant response rating, Wheat [2, 18]: 0
- Plant response rating, Wheat [2, 19]: 0
- Plant response rating, Wheat [2, 20]: 10
- Wheat plant response rating [2, 21]: 40
- Wheat plant response rating [2, 22]: 55
- Plant response rating, Barnyardgrass [3, 15]: 15
- Barnyardgrass plant response rating [3, 16]: 30
- Plant response rating, Barnyardgrass ([3]; Postemergence, 125 g ai/ha, scale 0 to 100, 0 is no effect, 100 is complete control): 45
- Plant response rating, Barnyardgrass [3, 17]: 35
- Plant response rating, Barnyardgrass [3, 18]: 0
- Plant response rating, Barnyardgrass [3, 19]: 40
- Plant response rating, Barnyardgrass [3, 20]: 50
- Barnyardgrass plant response rating [3, 21]: 95
- Plant response rating, Blackgrass [4, 15]: 45
- Blackgrass plant response rating [4, 16]: 35
- Plant response rating, Blackgrass [4, 17]: 30
- Plant response rating, Blackgrass [4, 18]: 30
- Plant response rating, Blackgrass [4, 19]: 60
- Plant response rating, Blackgrass [4, 20]: 50
- Blackgrass plant response rating [4, 21]: 50
- Blackgrass plant response rating [4, 22]: 70
- Plant response rating, Galium [5, 15]: 90
- Galium plant response rating [5, 16]: 95
- Plant response rating, Galium [5, 17]: 100
- Plant response rating, Galium [5, 18]: 95
- Plant response rating, Galium [5, 19]: 95
- Plant response rating, Galium [5, 20]: 100
- Galium plant response rating [5, 21]: 100
- Galium plant response rating [5, 22]: 98
- Plant response rating, Velvetleaf [6, 15]: 85
- Velvetleaf plant response rating [6, 16]: 90
- Plant response rating, Velvetleaf [6, 17]: 100
- Plant response rating, Velvetleaf [6, 18]: 55
- Plant response rating, Velvetleaf [6, 19]: 90
- Plant response rating, Velvetleaf [6, 20]: 90
- Velvetleaf plant response rating [6, 21]: 100
- Velvetleaf plant response rating [6, 22]: 100
- Plant response rating, Waterhemp [7, 15]: 95
- Waterhemp plant response rating [7, 16]: 100
- Plant response rating, Waterhemp [7, 17]: 100
- Plant response rating, Waterhemp [7, 18]: 80
- Plant response rating, Waterhemp [7, 19]: 100
- Plant response rating, Waterhemp [7, 20]: 95
- Waterhemp plant response rating [7, 21]: 100
- Waterhemp plant response rating [7, 22]: 100
- Plant response rating, Foxtail, Giant [8, 15]: 25
- Foxtail, Giant plant response rating [8, 16]: 25
- Plant response rating, Foxtail, Giant [8, 17]: 55
- Plant response rating, Foxtail, Giant [8, 18]: 30
- Plant response rating, Foxtail, Giant [8, 19]: 65
- Plant response rating, Foxtail, Giant [8, 20]: 75
- Foxtail, Giant plant response rating [8, 21]: 90
- Foxtail, Giant plant response rating [8, 22]: 40
- Plant response rating, Corn (corn (Zea mays); [15]): 5
- Corn plant response rating (corn (Zea mays); [16]): 5
- Plant response rating, Corn (corn (Zea mays); [17]): 5
- Plant response rating, Corn (corn (Zea mays); [18]): 5
- Plant response rating, Corn (corn (Zea mays); [19]): 5
- Plant response rating, Corn (corn (Zea mays); [20]): 10
- Corn plant response rating (corn (Zea mays); [21]): 10
- Corn plant response rating (corn (Zea mays); [22]): 5
- Plant response rating, Pigweed [9, 15]: 80
- Pigweed plant response rating [9, 16]: 98
- Plant response rating, Pigweed [9, 17]: 95
- Plant response rating, Pigweed [9, 18]: 100
- Plant response rating, Pigweed [9, 19]: 100
- Plant response rating, Pigweed [9, 20]: 100
- Pigweed plant response rating [9, 21]: 100
- Pigweed plant response rating [9, 22]: 100
- Plant response rating, Nutsedge, Yellow [10, 15]: 75
- Nutsedge, Yellow plant response rating [10, 16]: 90
- Plant response rating, Nutsedge, Yellow [10, 17]: 98
- Plant response rating, Nutsedge, Yellow [10, 18]: 20
- Plant response rating, Nutsedge, Yellow [10, 19]: 55
- Plant response rating, Nutsedge, Yellow [10, 20]: 70
- Nutsedge, Yellow plant response rating [10, 21]: 95
- Nutsedge, Yellow plant response rating [10, 22]: 95
- Plant response rating, Ryegrass, Italian [11, 15]: 5
- Ryegrass, Italian plant response rating [11, 16]: 10
- Plant response rating, Ryegrass, Italian [11, 17]: 5
- Plant response rating, Ryegrass, Italian [11, 18]: 90
- Plant response rating, Ryegrass, Italian [11, 19]: 95
- Plant response rating, Ryegrass, Italian [11, 20]: 100
- Ryegrass, Italian plant response rating [11, 21]: 100
- Ryegrass, Italian plant response rating [11, 22]: 35
- Plant response rating, Morningglory [12, 15]: 100
- Morningglory plant response rating [12, 16]: 100
- Plant response rating, Morningglory [12, 17]: 95
- Plant response rating, Morningglory [12, 18]: 45
- Plant response rating, Morningglory [12, 19]: 85
- Plant response rating, Morningglory [12, 20]: 90
- Morningglory plant response rating [12, 21]: 95
- Morningglory plant response rating [12, 22]: 100
- Plant response rating, Johnsongrass [13, 15]: 5
- Johnsongrass plant response rating [13, 16]: 10
- Plant response rating, Johnsongrass [13, 17]: 10
- Plant response rating, Johnsongrass [13, 18]: 5
- Plant response rating, Johnsongrass [13, 19]: 35
- Plant response rating, Johnsongrass [13, 20]: 30
- Johnsongrass plant response rating [13, 21]: 40
- Johnsongrass plant response rating [13, 22]: 20
- Plant response rating, Ragweed [14, 15]: 0
- Ragweed plant response rating [14, 16]: 0
- Plant response rating, Ragweed [14, 17]: 5
- Plant response rating, Ragweed [14, 18]: 70
- Plant response rating, Ragweed [14, 19]: 75
- Plant response rating, Ragweed [14, 20]: 95
- Ragweed plant response rating [14, 21]: 98
- Ragweed plant response rating [14, 22]: 5

— US10597388B2, “Pyridazinone herbicides” (FMC CORPORATION, priority 2014, dated 2020)
